{
  "source": "patent US20230097603A1",
  "about": "“NICOTINAMIDE MONONUCLEOTIDE DERIVATIVES FOR THE TREATMENT OF ARRHYTHMIA” (NUVAMID SA, priority 2020, published 2023)",
  "key": {"[1]": {"test_system": "ischaemia-reperfusion rat", "assay": "Arrhythmia induced by ischaemia-reperfusion in anaesthetised rats", "format": "in vivo", "settings": "for ventricular fibrillation during the ischaemia (effect in words) / ventricular tachycardia during the ischaemia (effect in words) / incidence of ventricular tachycardia during reperfusion (effect in words) / duration of ventricular tachycardia during reperfusion (effect in words) / ventricular fibrillation during reperfusion (effect in words) / mortality during the reperfusion period (effect in words): iv; for ventricular fibrillation during the ischaemia (effect in words) / ventricular tachycardia during the ischaemia (effect in words): I-C 185 mg/kg 30 min before, cariporide 0.3 mg/kg 5 min before ischaemia; for incidence of ventricular tachycardia during reperfusion (effect in words) / duration of ventricular tachycardia during reperfusion (effect in words) / ventricular fibrillation during reperfusion (effect in words) / mortality during the reperfusion period (effect in words): I-C 185 mg/kg, cariporide 0.3 mg/kg; for duration of ventricular tachycardia during reperfusion (effect in words) / ventricular fibrillation during reperfusion (effect in words): vs carrier; for mortality during the reperfusion period (effect in words): carrier group 25% death", "experimental": "Arrhythmias were obtained in an acute model of ischaemia-reperfusion in rats.\nThe rats were first anaesthetised, then intubated and mechanically ventilated, before being prepared for surgery.\nCatheters were then placed in the carotid artery in order to measure the arterial pressure and in the caudal vein for the perfusion of drugs. The arterial catheter consists in a catheter filled with fluid which sends the pressure to a transducer located nearby. The mean arterial pressure is calculated electronically and recorded continuously.\nA three-lead electrocardiogram (ECG) was recorded throughout the procedure by means of needle electrodes attached to the limbs.\nThe modifications to the ECG, mean arterial pressure (MAP) and the heart rate were measured before and during the occlusion-reperfusion period. The definitions of the arrhythmias are based on those described in the Lambeth conventions (Walker and al., The Lambeth conventions: guidelines for the study of arrhythmias in ischaemia infarction, and reperfusion, Cardiovascular Research, 1988, 22(7), 447-455). The ectopic activity has been categorized as a single ventricular premature beat (VPB), a ventricular tachycardia (VT, four or more consecutive VPBs) or a ventricular fibrillation (VF, inability to distinguish individual QRS complexes and to measure the rate). The arterial pressure traces were referred to in order to confirm which type of ectopic activity was produced, in particular to distinguish between polymorphic VT and VF. When the first is produced, the arterial pressure is generally still pulsatile whereas with VF, the arterial pressure falls rapidly towards zero and is no longer pulsatile. The VF can be sustained or can spontaneously return to a normal sinusoidal rhythm in rats. In all the experiments, the incidences of TV and VF as well as the duration of the ventricular tachycardia were noted.\nThe heart was then exposed by a left intercostal thoracotomy. After opening the pericardium, a 6.0 silk stitch was placed around the left coronary artery on a polypropylene tube in order to form a collar. The hearts were subjected to an ischaemia for 7 minutes by tightening the suture 5 minutes after the treatment. Finally, the collar occluder was released in order to allow the reperfusion of the myocardial tissue for 10 minutes. At the end of the reperfusion period, the rats were euthanised by cervical dislocation while still anaesthetised.\nThe means± the standard error on the mean are presented.\nThe statistical analysis was carried out using the GraphPad Prism 5 software. The Fisher test was used to analyse the differences between the incidences of arrhythmias, while the chi-squared test was used to compare the incidence of mortality. The Kruskall-Wallis test was used to analyse the differences between the duration of the tachycardia and the ventricular fibrillations and the difference in the number of ventricular fibrillations.\nThe rats were treated by the intravenous route with a saline solution, a compound of formula I-C at 185 mg/kg (30 minutes before the ischaemia) or cariporide at 0.3 mg/kg (5 minutes before the ischaemia). The animals were subjected to a 7-minute ischaemia and a 10-minute reperfusion. Throughout the experimental phase, the arterial pressure and ECG profiles were recorded continuously. Blood was sampled 5 minutes after the end of the reperfusion and the heart was weighed."}, "[2]": {"test_system": "arrhythmias induced by doxorubicin", "assay": "Arrhythmia induced by doxorubicin in mice, heart rate by ECG", "format": "in vivo", "settings": "for heart rate 5 days after the injection of DOX (effect in words): vs DOX + carrier", "experimental": "The goal of this study was to evaluate the effects of an i.p. administration of compounds I-C, I-J and I-K, at 180 mg/kg, on arrhythmias induced by doxorubicin. 76 male mice, 8 weeks old on arrival, were obtained from Janvier Labs, Le Genest St Isle, 53941 St Berthevin, France. Each animal was identified with an electronic chip. The powder of compounds I-C, I-J and I-K (180 mg/kg) was dissolved in the carrier (the solution was used at ambient temperature for a maximum of 1 day). […] Doxorubicin was prepared at 2 mg/mL and the administration volume was 10 mL/kg. The control group received an injection of saline solution. Each group comprises 14 to 24 mice. As indicated in the regulations relating to non-clinical laboratory studies, the groups of test and control animals have been kept under identical conditions. The envisaged duration of the study was 11 days. […] The treatment with compounds I-C, I-J and I-K was initiated after 5 days before the injection of DOX, once per day from Day 5 to Day 0. The mice were treated i.p with compounds I-C, I-J and I-K 30 minutes before the injection of DOX. The mice were treated i.p with compounds I-C, I-J and I-K during the duration of the experiment (J0 to J5) once per day. […] In particular, the heart rate was evaluated during the ECG: […]"}, "infarction": {"test_system": "infarction", "settings": "ischaemia of at least 30 minutes and reperfusion of at least 60 minutes; cited from earlier work"}, "[3]": {"settings": "185 mg/kg iv 30 minutes before ischaemia, 7-minute ischaemia"}, "[4]": {"settings": "185 mg/kg iv, 10-minute reperfusion"}, "[5]": {"settings": "DOX 20 mg/kg i.p. + compound 180 mg/kg i.p. once per day"}},
  "note": "“Also recorded” adds a separate entry of the source.",
  "data": [
    {"compound": "NC(=O)c1ccc[n+]([C@@H]2O[C@H](COP(=O)([O-])O)[C@@H](O)[C@H]2O)c1", "note": "[I-C]", "values": [
      {"measurement": "duration of ventricular tachycardia during the ischaemia", "setting": "[1]; [3]", "value": "0.2 ± 0.2", "unit": "s"},
      {"measurement": "incidence of ventricular tachycardia during the ischaemia", "setting": "[1]; [3]", "value": "approximately 9%"},
      {"measurement": "duration of ventricular fibrillation during reperfusion", "setting": "[1]; [4]", "value": "4.0±2.3 % of the duration of the reperfusion"},
      {"measurement": "incidence of ventricular fibrillation during reperfusion", "setting": "[1]; [4]", "value": "approximately 55%"},
      {"measurement": "number of ventricular fibrillations during reperfusion", "setting": "[1]; [4]", "value": "approximately one"},
      {"measurement": "ventricular fibrillation during the ischaemia (effect in words)", "setting": "[1]", "value": "remove the ventricular fibrillation"},
      {"measurement": "ventricular tachycardia during the ischaemia (effect in words)", "setting": "[1]", "value": "significantly reduce the incidence and duration"},
      {"measurement": "incidence of ventricular tachycardia during reperfusion (effect in words)", "setting": "[1]; 10-minute reperfusion", "value": "no effect"},
      {"measurement": "duration of ventricular tachycardia during reperfusion (effect in words)", "setting": "[1]; 10-minute reperfusion", "value": "appeared to reduce the duration"},
      {"measurement": "ventricular fibrillation during reperfusion (effect in words)", "setting": "[1]; 10-minute reperfusion", "value": "tendency to reduce the incidence"},
      {"measurement": "mortality during the reperfusion period (effect in words)", "setting": "[1]", "value": "removed mortality"},
      {"measurement": "heart rate 5 days after the injection of DOX (effect in words)", "setting": "[2]; [5]", "value": "increase in heart rates; also recorded: significantly attenuated"}
    ]},
    {"compound": "NC(=O)c1ccc[n+]([C@@H]2O[C@H](COP(=O)([O-])O)[C@@H](O)[C@H]2O)c1", "note": "[NMN, Nicotinamide Mononucleotide]", "values": [
      {"measurement": "protective effect against infarction", "setting": "infarction", "value": "protects the heart"}
    ]},
    {"compound": "COc1cccc2c1C(=O)c1c(O)c3c(c(O)c1C2=O)C[C@@](O)(C(=O)CO)C[C@@H]3O[C@H]1C[C@H](N)[C@H](O)[C@H](C)O1", "note": "[doxorubicin, reference compound]", "values": [
      {"measurement": "heart rate 5 days after the injection of DOX", "setting": "[2]; DOX 20 mg/kg i.p. + carrier, control mice 525.6±19.8 bpm", "value": "365.1±23.9", "unit": "bpm"}
    ]},
    {"compound": "NC(=O)c1ccc[n+]([C@@H]2O[C@H](COP(=O)([O-])OP(=O)([O-])OC[C@H]3O[C@H]([n+]4cccc(C(N)=O)c4)[C@H](O)[C@@H]3O)[C@@H](O)[C@H]2O)c1", "note": "[I-J]", "values": [
      {"measurement": "heart rate 5 days after the injection of DOX", "setting": "[2]; [5]", "value": "470.1±18.8", "unit": "bpm"},
      {"measurement": "heart rate 5 days after the injection of DOX (effect in words)", "setting": "[2]; [5]", "value": "increase in heart rates; also recorded: significantly attenuated"}
    ]},
    {"compound": "NC(=O)c1ccc[n+]([C@H]2O[C@H](COP(=O)([O-])OP(=O)([O-])OC[C@H]3O[C@H]([n+]4cccc(C(N)=O)c4)[C@H](O)[C@@H]3O)[C@@H](O)[C@H]2O)c1", "note": "[I-K]", "values": [
      {"measurement": "heart rate 5 days after the injection of DOX (effect in words)", "setting": "[2]; [5]", "value": "increase in heart rates; also recorded: significantly attenuated"}
    ]},
    {"compound": "CC(C)c1ccc(C(=O)NC(=N)N)cc1S(C)(=O)=O", "note": "[Cariporide, reference compound]", "values": [
      {"measurement": "ventricular fibrillation during the ischaemia (effect in words)", "setting": "[1]", "value": "removed"},
      {"measurement": "ventricular tachycardia during the ischaemia (effect in words)", "setting": "[1]", "value": "removed"},
      {"measurement": "incidence of ventricular tachycardia during reperfusion (effect in words)", "setting": "[1]; 10-minute reperfusion", "value": "no beneficial effect"},
      {"measurement": "duration of ventricular tachycardia during reperfusion (effect in words)", "setting": "[1]; 10-minute reperfusion", "value": "tendency to be shorter"},
      {"measurement": "ventricular fibrillation during reperfusion (effect in words)", "setting": "[1]; 10-minute reperfusion", "value": "removed"},
      {"measurement": "mortality during the reperfusion period (effect in words)", "setting": "[1]", "value": "removed"}
    ]}
  ]
}
